Assay results as given in PubChem BioAssay (NCI).
Several values for one entry are separate records, joined by “and”; a condition that tells them apart may be missing. Equal entries are not always repeated.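 Five compound concentrations were applied to cells in 96-well plates for 48 hours; endpoints were derived by simple linear interpolation of the resulting dose-response curve. GI50 = concentration required for 50% inhibition of growth. The concentration for full growth arrest is given as TGI.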

Tests used:
Assay in all cases: inhibition of tumour cell growth, NCI panel, 48 h
UACC-62 melanoma = tested on: UACC-62 melanoma
RXF 393 renal = tested on: RXF 393 renal
HOP-62 NSCLC = tested on: HOP-62 NSCLC
SK-MEL-2 melanoma = tested on: SK-MEL-2 melanoma
U251 CNS = tested on: U251 CNS
HCT-15 colon = tested on: HCT-15 colon
HS 578T breast = tested on: HS 578T breast
K-562 leukemia = tested on: K-562 leukemia
SF-539 CNS = tested on: SF-539 CNS
SNB-75 CNS = tested on: SNB-75 CNS

Compound	TGI (UACC-62 melanoma) [µM]	TGI (RXF 393 renal) [µM]	TGI (HOP-62 NSCLC) [µM]	TGI (SK-MEL-2 melanoma) [µM]	TGI (U251 CNS) [µM]	TGI (HCT-15 colon) [µM]	TGI (HS 578T breast) [µM]	TGI (K-562 leukemia) [µM]	TGI (SF-539 CNS) [µM]	GI50 (UACC-62 melanoma) [µM]	GI50 (SNB-75 CNS) [µM]	TGI (SNB-75 CNS) [µM]	GI50 (RXF 393 renal) [µM]	GI50 (HOP-62 NSCLC) [µM]	GI50 (SK-MEL-2 melanoma) [µM]	GI50 (U251 CNS) [µM]	GI50 (HCT-15 colon)	GI50 (SF-539 CNS) [µM]	GI50 (HS 578T breast) [µM]	GI50 (K-562 leukemia)
OC(c1ccccc1)c1c(-c2ccccc2)oc(-c2ccccc2)c1C(O)c1ccccc1 (stereo not given)	25.6	21.5	27.9	31.5	27.6	36.8	52.7	13.9	30.5	–	–	–	–	–	–	–	–	–	–	–
CC[O-].CC[O-].O=C([CH-]C(=O)c1ccccc1)c1ccccc1.O=C([CH-]C(=O)c1ccccc1)c1ccccc1.[Ti+4]	> 100	> 100	> 100	> 100	> 100	> 100	–	–	> 100	> 100	61.6	> 100	39.1	> 100	> 100	57.2	> 100 µM	19.8	–	–
CC(C)(C)C[P+](C)(C)c1ccccc1	> 100	> 100	> 100	> 100	> 100	> 100	–	> 100	> 100	–	–	> 100	–	–	–	–	–	–	–	–
Oc1[nH]c2ccc(Cl)cc2c1/C=c1/ccc2c(c1)N=C(c1cc(F)cc(F)c1)N=2	> 100	9.88	45	8.52	–	> 100	> 100	> 100	> 100	3.43	2.06	7.13	3.37	3.77	3.24	–	3.96 µM	8.7	2.9	3.12 µM
Cc1cc2c(cc1C)[n+]([O-])c(-c1c(Cl)cccc1Cl)c(N)[n+]2[O-]	> 100	–	96.8	> 100	> 100	> 100	–	> 100	> 100	–	–	> 100	–	–	–	–	–	–	–	–
Cc1cccc(N=C2NC(=O)C(CC(=O)Nc3ccc(Cl)cc3C)S2)c1 (stereo not given)	> 100	> 100	> 100	> 100	–	> 100	–	> 100	> 100	–	–	> 100	–	–	–	–	–	–	–	–
CCC[CH2][Sn]1([CH2]CCC)[O]C(=O)c2cc(C)ccc2[O]1	1.56	0.555	–	0.808	1.54	1.45	–	1.16	1.66	0.465	0.291	1.2	0.283	–	0.303	0.462	0.446 µM	0.521	–	0.222 µM
N#CC12Cc3ccc4c(c3-c3cccc(c31)CCN2C(=O)c1ccccc1)OCO4 (stereo not given)	> 100	> 100	> 100	–	> 100	> 100	–	> 100	> 100	–	–	> 100	–	–	–	–	–	–	–	–
CC12OC3CC(O1)C1(C=O)C4CCC5(C)C(c6ccc(=O)oc6)CCC5(O)C4CCC1(C3)O2 (stereo not given)	0.781	0.256	0.348	0.79	1.24	0.648	–	> 100	0.228	–	–	1.03	–	–	–	–	–	–	–	–
CC(C)[O-].CC(C)[O-].[O-]c1cccc2cccnc12.[O-]c1cccc2cccnc12.[Ti+4]	> 100	6.04	> 100	> 100	> 100	> 100	–	> 100	> 100	28.5	> 100	> 100	2.42	> 100	31.3	> 100	4.79 µM and 8.05 µM	97	–	3.04 µM and 3.37 µM
COc1cccc(Nc2nccc(Nc3ccc4[nH]ncc4c3)n2)c1	–	2.33	3.78	3.27	3.18	2.91	4.61	3.89	–	–	1.39	3.13	1.06	1.71	1.62	1.58	1.21 µM	–	1.79	1.3 µM
COC(=O)C1=Cc2c(OC)cc(OC)c(OC)c2[C@H](c2cc(OC)c(OC)cc2OC)C1C(=O)OC (stereo not given in full)	> 100	> 100	> 100	–	> 100	> 100	–	46.9	> 100	–	–	> 100	–	–	–	–	–	–	–	–
C=C(C)[C@@H]1CC[C@]2(C)[C@H](C=CC3=C4C[C@@](C)(CO)CC[C@]4(C)CC[C@]32C)[C@@]1(C)CCCN	3.17	3.07	–	3.58	3.32	2.92	4.07	5.04	3.13	1.78	1.53	2.97	1.62	–	1.92	1.64	1.53 µM	1.73	1.8	1.8 µM
CCc1oc2ccc(OC)c3c2c1C=CC=C3	> 100	> 100	> 100	> 100	> 100	> 100	–	> 100	> 100	–	–	> 100	–	–	–	–	–	–	–	–
O=c1[nH]c2c(O)cccc2c2cc3c(c(O)c12)OCO3	71.3	–	61.8	–	63.4	> 100	–	> 100	54.4	–	–	> 100	–	–	–	–	–	–	–	–
CC(C)NC(=O)O/N=C1\CCC2[C@@H]3CC=C4C[C@@H](OC(=O)NC(C)C)CC[C@]4(C)C3CC[C@]12C (stereo not given in full)	3.18	3.54	> 34	2.9	2.8	3.08	–	5.85	–	–	–	3.74	–	–	–	–	–	–	–	–
CCOC(=O)C1CC/C(=C(/C#N)C(=O)OC)N1 (stereo not given)	> 100	> 100	> 100	> 100	> 100	> 100	–	> 100	> 100	–	–	> 100	–	–	–	–	–	–	–	–
CCOC(=O)N1CCC(=O)C[C@@H]1C/C=C/P1(=O)O[C@H](c2ccccc2)C(C)N1C(C)C (stereo not given in full)	> 100	> 100	–	> 100	> 100	> 100	–	> 100	> 100	–	–	> 100	–	–	–	–	–	–	–	–
N#CC(C#N)=Cc1ccc(-c2ccc(-c3nc4ccccc4o3)cc2)o1	> 100	> 100	51.9	> 100	52.5	> 100	–	> 100	> 100	42.4	> 100	> 100	96.2	21.6	> 100	21.7	20.2 µM	31.1	–	19.3 µM
